The assay addresses T1, KRAS 4B G12C protein (Homo sapiens, UniProt P01116, G12C).
T1 construct: This protein contained 188 amino acids in total, including an N-terminal 6-Histidine tag; made in house; host or cells: E. coli BL21
Nature of the assay: In vitro covalent adduct formation (CAF) assay by LC-MS. The assay is classed as binding. The settings on record: compound 10 μM, protein 5 μM, 22° C., percentage of protein bound by the compound. An outline of the steps:
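Percent of protein covalently modified was quantified from intact-mass LC-MS ratios of free versus adducted protein, adducts within 1 Da of expected mass. Reactions: 10 μM compound, 5 μM His-TEV-KRAS 4B G12C (1-169) in TBS pH 7.4, 4% DMSO, 22° C., one hour, run in duplicate.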

Regarding `C=CC(=O)N1CCN(c2nc(OC[C@@H]3CCCN3C)nc3c2CN(Cc2ccccc2CC(F)(F)F)C3)C[C@@H]1CC#N` [1-225], the “CAF (10 minutes/60 minutes) at 10 micromolar: 10 minutes” value (“CAF … at 10 micromolar: 10 minutes” below) was determined as 77% and the “CAF (10 minutes/60 minutes) at 10 micromolar: 60 minutes” value (from here on “CAF … at 10 micromolar: 60 minutes”) is reported as 93%.

Turning to `CN1CCC[C@H]1COc1nc2c(c(N3CCN(C(=O)C45CC4C5)[C@@H](CC#N)C3)n1)CN(C1CCc3ccccc31)C2` (some centres unmarked) [1-316], the “CAF … at 10 micromolar: 10 minutes” value was 0%/ 0% and the “CAF … at 10 micromolar: 60 minutes” value was found to be 0%/ 0%.

Regarding `C=CC(=O)N1CC2CCC1CN2c1nc(OC[C@@H]2CCCN2C)nc2c1CN(Cc1cc(O)ccc1Cl)C2` (some centres unmarked) [1-160], the “CAF … at 10 micromolar: 10 minutes” value amounted to 34% and the “CAF … at 10 micromolar: 60 minutes” value is on record as 67%.

Regarding `C=C(F)C(=O)N1CCN(c2nc(OC[C@@H]3CCCN3C)nc3c2CN(Cc2cccc4ncccc24)C3)C[C@@H]1CC#N` [1-319], the “CAF … at 10 micromolar: 10 minutes” value worked out at 0%/ 0% and the “CAF … at 10 micromolar: 60 minutes” value was found to be 0%/ 0%.

As to `C=CC(=O)N1CCN(c2nc(OC[C@@H]3CCCN3C)nc3c2CN(C2CCc4ccccc42)C3)C[C@H]1C(N)=O` (some centres unmarked) [1-163], the “CAF … at 10 micromolar: 60 minutes” value is “NA/ 55%”.

Turning to `C=CC(=O)N1CC2(C1)CN(c1nc(OC[C@@H]3CCCN3C)nc3c1CN(C1CCc4ccccc41)C3)CCO2` (some centres unmarked) [1-216], the “CAF … at 10 micromolar: 10 minutes” value stood at 18% and the “CAF … at 10 micromolar: 60 minutes” value was 54%.

Turning to `C=CC(=O)N1C2CC(=O)CC1CN(c1nc(O[C@@H]3CN(C)C[C@H]3OC)nc3c1CN(C1CCc4ccccc41)C3)C2` (some centres unmarked) [1-232], the “CAF … at 10 micromolar: 10 minutes” value was 0%/ 0% and the “CAF … at 10 micromolar: 60 minutes” value turned out to be 0%/ 0%.

Turning to `C=CC(=O)N1CCN(c2nc(OC[C@@H]3CCCO3)nc3c2CN(Cc2c(F)cccc2OC)C3)C[C@@H]1CC#N` [1-79], the “CAF … at 10 micromolar: 10 minutes” value came out at 3% and the “CAF … at 10 micromolar: 60 minutes” value was found to be 23%.

Consider `C=CC(=O)N1CCN(c2nc(OC[C@@H]3CCCN3C)nc3c2CN(C2CCc4ccccc42)C3)C[C@@H]1C(O)C(F)(F)F` (some centres unmarked) [1-117], for which the “CAF … at 10 micromolar: 10 minutes” value turned out to be 0% and the “CAF … at 10 micromolar: 60 minutes” value was determined as 4%.

As to `C=CC(=O)N1CCN(c2nc(OC[C@@H]3CCCN3C)nc3c2CN(Cc2cc(F)ccc2Cl)C3)C[C@@H]1CC#N` [1-25], the “CAF … at 10 micromolar: 10 minutes” value is on record as 78% and the “CAF … at 10 micromolar: 60 minutes” value stood at 93%.

Regarding `C=CC(=O)N1CCN(c2nc(OC[C@@H]3CCCN3C)nc3c2CN(C(C)c2c(F)cccc2OC)C3)C[C@@H]1CC#N` (some centres unmarked) [1-97], the “CAF … at 10 micromolar: 10 minutes” value is on record as 95% and the “CAF … at 10 micromolar: 60 minutes” value is recorded as 98%.

In the case of `C=CC(=O)N1CCN(c2nc(OC[C@@H]3CCCN3C)nc3c2CN(C2CC(C)(C)c4ccc(O)cc42)C3)C[C@@H]1CC#N` (some centres unmarked) [1-194], the “CAF … at 10 micromolar: 10 minutes” value came out at 32%/ 32% and the “CAF … at 10 micromolar: 60 minutes” value was 32%/ 32%.

In the case of `C=C(F)C(=O)N1CCN(c2nc(OC[C@@H]3CCCN3C)nc3c2CN(Cc2c(Cl)cccc2OC(F)F)C3)C[C@@H]1CC#N` [1-104], the “CAF … at 10 micromolar: 10 minutes” value was 8% and the “CAF … at 10 micromolar: 60 minutes” value is on record as 48%.

`C=C(F)C(=O)N1CCN(c2nc(OC[C@@H]3CCCN3C)nc3c2CN(Cc2c(Cl)ccc(O)c2Cl)C3)C[C@@H]1CC#N` [1-322]: the “CAF … at 10 micromolar: 10 minutes” value is 76% and the “CAF … at 10 micromolar: 60 minutes” value is given as 94%.

Consider `C=CC(=O)N1CCN(c2nc(OC[C@@H]3CCCN3C)nc3c2CN(Cc2cc(O)c(Cl)cc2Cl)C3)C[C@@H]1CC#N` [1-330], for which the “CAF … at 10 micromolar: 10 minutes” value stood at 52% and the “CAF … at 10 micromolar: 60 minutes” value worked out at 86%.

As for `C=CC(=O)N1CCN(c2nc(OC[C@@H]3CCCN3C)nc3c2CN(Cc2cc(O)ccc2Cl)C3)CC1` [1-165], the “CAF … at 10 micromolar: 10 minutes” value came to 88% and the “CAF … at 10 micromolar: 60 minutes” value came to 96%.

As to `C=C(F)C(=O)N1CCN(c2nc(OC[C@@H]3CCCN3C)nc3c2CN(C2CCc4cccc(Cl)c42)C3)C[C@@H]1CC#N` (some centres unmarked) [1-153], the “CAF … at 10 micromolar: 10 minutes” value is on record as 46% and the “CAF … at 10 micromolar: 60 minutes” value was 78%.

For the compound `C=CC(=O)N1CCN(c2nc(OC[C@@H]3CCCN3C)nc3c2CN(C2CCc4ccccc42)C3)[C@H](C(N)=O)C1` (some centres unmarked) [1-182], the “CAF … at 10 micromolar: 10 minutes” value is recorded as 7% and the “CAF … at 10 micromolar: 60 minutes” value amounted to 30%.

Regarding `C=CC(=O)N1CCN(c2nc(OC[C@@H]3CCCN3C)nc3c2CN(Cc2c(C)cccc2C)C3)C[C@@H]1CC#N` [1-29], the “CAF … at 10 micromolar: 10 minutes” value was determined as 98% and the “CAF … at 10 micromolar: 60 minutes” value is on record as 99%.

Take `C=CC(=O)N1CCN(c2nc(OC[C@@H]3CCCN3C)nc3c2CN(Cc2cc(O)ccc2F)C3)[C@@H](C)C1` [1-50]: the “CAF … at 10 micromolar: 10 minutes” value stood at 53% and the “CAF … at 10 micromolar: 60 minutes” value was found to be 92%.

Turning to `C=CC(=O)N1CCN(c2nc(OC[C@@H]3CCCN3C)nc3c2CN(C2CCCc4ccccc42)C3)C[C@@H]1CC#N` (stereo partly drawn) [1-52 (2nd isomer)], the “CAF … at 10 micromolar: 10 minutes” value was 76% and the “CAF … at 10 micromolar: 60 minutes” value was 91%.

Consider `C=CC(=O)N1CCN(c2nc(OC[C@@H]3CCCN3C)nc3c2CN(Cc2c(O)cccc2F)C3)C[C@@H]1CC#N` [1-7, 2-((S)-1-acryloyl-4-(6-(2-fluoro-6-hydroxybenzyl)-2-(((S)-1-methylpyrrolidin-2-yl)methoxy)-6,7-dihydro-5H-pyrrolo[3,4-d]pyrimidin-4-yl)piperazin-2-yl)acetonitrile], for which the “CAF … at 10 micromolar: 10 minutes” value is on record as 96% and the “CAF … at 10 micromolar: 60 minutes” value came to 97%.

Consider `C=CC(=O)N1CCN(c2nc(OC[C@@H]3CCCN3C)nc3c2CN(Cc2c(C)cccc2O)C3)C[C@@H]1CC#N` [1-55], for which the “CAF … at 10 micromolar: 10 minutes” value turned out to be 78% and the “CAF … at 10 micromolar: 60 minutes” value is given as 91%.

Regarding `C=CC(=O)N1CCN(c2nc(OC[C@@H]3CCCN3C)nc3c2CN(Cc2cc(O)ccc2C(C)C)C3)C[C@@H]1CC#N` [1-185], the “CAF … at 10 micromolar: 10 minutes” value stood at 96% and the “CAF … at 10 micromolar: 60 minutes” value amounted to 97%.

`C=CC(=O)N1C[C@H](C)N(c2nc(OC[C@@H]3CCCN3C)nc3c2CN(Cc2cc(O)ccc2C)C3)C[C@H]1C` [1-18]: the “CAF … at 10 micromolar: 10 minutes” value was 21% and the “CAF … at 10 micromolar: 60 minutes” value is listed as 65%.

For `C=CC(=O)N1CCN(c2nc(OC[C@@H]3CCCN3C)nc3c2CN(Cc2cccc4nc[nH]c24)C3)C[C@@H]1CC#N` [1-201], the “CAF … at 10 micromolar: 10 minutes” value is reported as 79% and the “CAF … at 10 micromolar: 60 minutes” value stood at 94%.

In the case of `C=C(F)C(=O)N1CCN(c2nc(OC[C@@H]3CCCN3C)nc3c2CN(Cc2cc(O)ccc2C(C)C)C3)C[C@@H]1CC#N` [1-218], the “CAF … at 10 micromolar: 10 minutes” value is listed as 95% and the “CAF … at 10 micromolar: 60 minutes” value was found to be 94%.

Turning to `C=CC(=O)N1CCN(c2nc(OC[C@@H]3CCCN3C)nc3c2CN(Cc2cc(O)ccc2Cl)C3)C[C@@H]1CC#N` [1-26, 2-((S)-1-acryloyl-4-(6-(2-chloro-5-hydroxybenzyl)-2-(((S)-1-methylpyrrolidin-2-yl)methoxy)-6,7-dihydro-5H-pyrrolo[3,4-d]pyrimidin-4-yl)piperazin-2-yl)acetonitrile], the “CAF … at 10 micromolar: 10 minutes” value is listed as 74%/ 74% and the “CAF … at 10 micromolar: 60 minutes” value is given as 74%/ 74%.

On to `C#CC[C@H]1CN(c2nc(OC[C@@H]3CCCN3C)nc3c2CN(C2CCc4ccccc42)C3)CCN1C(=O)C=C` (stereo partly drawn) [1-144, 1-((2S)-4-(6-(2,3-dihydro-1H-inden-1-yl)-2-(((S)-1-methylpyrrolidin-2-yl)methoxy)-6,7-dihydro-5H-pyrrolo[3,4-d]pyrimidin-4-yl)-2-(prop-2-yn-1-yl)piperazin-1-yl)prop-2-en-1-one], for which the “CAF … at 10 micromolar: 10 minutes” value was determined as 15% and the “CAF … at 10 micromolar: 60 minutes” value is 35%.

Regarding `C=CC(=O)N1CCN(c2nc(Oc3cccc4ccn(C)c34)nc3c2CN(C2CCc4ccccc42)C3)C[C@@H]1CC#N` (some centres unmarked) [1-166], the “CAF … at 10 micromolar: 10 minutes” value is listed as 2% and the “CAF … at 10 micromolar: 60 minutes” value is on record as 15%.

For `C#CC1CN(c2nc(OC[C@@H]3CCCN3C)nc3c2CN(C2CCc4ccccc42)C3)CCN1C(=O)C=C` (some centres unmarked) [1-121], the “CAF … at 10 micromolar: 10 minutes” value is on record as 0% and the “CAF … at 10 micromolar: 60 minutes” value turned out to be 4%.

Regarding `C=CC(=O)N1CCN(c2nc(OC)nc3c2CN(Cc2cc(O)ccc2Cl)C3)C[C@@H]1CC#N` [1-78], the “CAF … at 10 micromolar: 10 minutes” value came to 89% and the “CAF … at 10 micromolar: 60 minutes” value is listed as 97%.

Consider `C=CC(=O)N1CCN(c2nc(OC[C@@H]3CCCN3C(C)(C)C)nc3c2CN(C2CCc4ccccc42)C3)C[C@@H]1CC#N` (some centres unmarked) [1-202], for which the “CAF … at 10 micromolar: 10 minutes” value is reported as 82% and the “CAF … at 10 micromolar: 60 minutes” value is 89%.

For the compound `C=C(F)C(=O)N1CCN(c2nc(OC[C@@H]3CCCN3C)nc3c2CN(Cc2c[nH]nc2C)C3)C[C@@H]1CC#N` [1-343], the “CAF … at 10 micromolar: 10 minutes” value turned out to be 0%/ 0% and the “CAF … at 10 micromolar: 60 minutes” value amounted to 0%/ 0%.

For the compound `C=CC(=O)N1CCN(c2nc(OC[C@@H]3CCCN3C)nc3c2CN(Cc2cc(Cl)ccc2C)C3)C[C@@H]1CC#N` [1-67], the “CAF … at 10 micromolar: 10 minutes” value worked out at 70% and the “CAF … at 10 micromolar: 60 minutes” value is reported as 92%.

Take `C=CC(=O)N1CCN(c2nc(OC[C@@H]3CCCN3C)nc3c2CN(Cc2c(C)cccc2OC(F)F)C3)C[C@@H]1CC#N` [1-83]: the “CAF … at 10 micromolar: 10 minutes” value was found to be 97% and the “CAF … at 10 micromolar: 60 minutes” value came out at 100%.

Source of the values: US20210292330A1, “PYRROLIDINE-FUSED HETEROCYCLES” (Erasca, Inc., priority 2020, published 2021).
